Test results from publication PMC6277198, “Molecular basis for activation of lecithin:cholesterol acyltransferase by a compound that increases HDL cholesterol” (eLife, 2018).
“Also recorded” adds a separate entry of the source.

What was measured:
LPLA2 = molecular target: T1, LPLA2 (Homo sapiens, UniProt Q8NCC3); assay: Differential scanning fluorimetry; type: binding
T1 sequence (Q8NCC3 34-412): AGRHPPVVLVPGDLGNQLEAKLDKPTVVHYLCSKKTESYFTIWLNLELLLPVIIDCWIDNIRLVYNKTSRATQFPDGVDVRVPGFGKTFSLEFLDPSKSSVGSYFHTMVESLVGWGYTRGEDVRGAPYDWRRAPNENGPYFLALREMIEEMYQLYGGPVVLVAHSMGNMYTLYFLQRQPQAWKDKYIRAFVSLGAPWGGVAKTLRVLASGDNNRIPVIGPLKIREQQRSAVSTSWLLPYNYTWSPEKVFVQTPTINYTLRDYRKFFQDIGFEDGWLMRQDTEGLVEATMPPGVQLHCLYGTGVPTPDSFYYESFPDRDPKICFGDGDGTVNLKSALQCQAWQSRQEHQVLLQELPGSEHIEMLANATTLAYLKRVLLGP

WT LCAT = molecular target: T2, WT LCAT (Homo sapiens, UniProt P04180); assay: Bio-layer interferometry, LCAT binding to ApoA-I HDLs; settings: 10 μM compound 1
T2 sequence (P04180 25-440): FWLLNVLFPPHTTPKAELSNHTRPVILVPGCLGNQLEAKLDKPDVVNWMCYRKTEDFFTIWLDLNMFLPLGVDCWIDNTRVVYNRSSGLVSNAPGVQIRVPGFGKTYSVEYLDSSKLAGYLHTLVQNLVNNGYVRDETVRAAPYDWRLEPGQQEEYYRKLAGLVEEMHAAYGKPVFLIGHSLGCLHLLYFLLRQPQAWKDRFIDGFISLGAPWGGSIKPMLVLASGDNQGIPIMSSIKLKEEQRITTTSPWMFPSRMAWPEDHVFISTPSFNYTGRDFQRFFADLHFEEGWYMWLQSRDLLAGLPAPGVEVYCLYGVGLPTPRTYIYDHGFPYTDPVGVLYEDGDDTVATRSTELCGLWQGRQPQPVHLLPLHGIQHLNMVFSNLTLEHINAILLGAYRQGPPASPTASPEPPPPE
Method: A FortéBio Octet RED system was used to measure the binding of LCAT to ApoA-I HDLs. HDLs were prepared with 1,2-dipalmitoyl-sn-glycero-3-phosphocholine (DPPC), 1-palmitoyl-2-oleoyl-sn-glycero-3-phosphocholine (POPC), and 16:0 biotinyl Cap PE in a ratio of 49.5:49.5:1 ([Manthei et al., 2017]). HDLs were diluted 1/20 in assay buffer (1X PBS pH 7.4, 1 mM EDTA, 60 µM fatty acid free bovine serum albumin) and then immobilized on streptavidin tips for 600 s, followed by a wash in assay buffer for 600 s to remove unbound HDLs. The tips were then moved to buffer containing DMSO or compound 1 and allowed to equilibrate for 120 s before a baseline was established for 30 s. […] In order to determine Kd values, the kobs (from association) were determined at each concentration for the fast phase and then plotted against LCAT concentration. The slope of the line was evaluated as kon using the equation kobs = kon[LCAT]+koff and the resultant Kd = koff/kon. For statistical analysis, the kon, koff, and Kd for each replicate was determined individually and the results were compared to WT using a one-way analysis of variance followed by Tukey’s multiple comparisons post-test in GraphPad Prism.

LCAT [1] = assay: Soluble esterase assay (pNPB); type: biochemical, human; settings: any variant of LCAT
Method: (§1) The esterase assay was performed as previously described ([Glukhova et al., 2015]) at least in triplicate. pNPB was diluted to 10 mM into reaction buffer containing 10% dimethylsulfoxide. The reaction was started by addition of 40 μL 1 μM LCAT containing either 3.2% DMSO or 11.1 μM compound 1 to 10 μL of pNPB. The increase in absorbance at 400 nm was monitored on a Spectramax plate reader for 15 min. Significance was determined using a one-way analysis of variance followed by Tukey’s multiple comparisons post-test in GraphPad Prism.

LCAT [2] = molecular target: T3, LCAT (Homo sapiens, UniProt P04180); assay: Soluble esterase assay (pNPB); type: biochemical; settings: WT LCAT
T3 construct: hydrolysis of 4-methylumbelliferyl palmitate (MUP) by full-length LCAT; made in house; host or cells: HEK293F (transient transfection, secreted)
T3 sequence (P04180 25-440): T2 sequence (P04180 25-440)
Method: as §1

`N#Cc1cnc(N2CCC(c3n[nH]c4c3C(O)(C(F)(F)F)CC(=O)N4)CC2)cc1C(F)(F)F` (stereo not shown) [compound 1, 6-(4-(4-Hydroxy-6-oxo-4-(trifluoromethyl)−4,5,6,7-tetrahydro-1H-pyrazolo[3,4-b]pyridin-3-yl)piperidin-1-yl)−4-(trifluoromethyl)nicotinonitrile] was tested, and the “Thermal stabilization (DSF)” value (LPLA2) was “not stabilized”, the “Effect on LCAT binding to HDL (kon, koff, Kd) in BLI” value (WT LCAT) was “does not affect; also recorded: no change” and the “Stimulation of pNPB esterase activity” value (LCAT [1]) was “did not stimulate”. For the same compound, the “Effect on pNPB esterase activity of WT” value (LCAT [2]) was “seemed to inhibit”.
